Target: T1, human CB2R (Homo sapiens, UniProt P34972)
T1 construct: host or cells: CHO cells
Experiment: CB2R mediated modulation of cAMP synthesis
Assay type: cell-based
Settings: not given
Protocol: B. CB2R Mediated Modulation of cAMP Synthesis:
Compounds of the invention are evaluated for their CB2 agonist or inverse agonistic activity in accordance with the following experimental method.
(§1) CHO cells expressing human CB2R (Euroscreen) are plated at a density of 5000 cells per well in 384 well plates and incubated overnight at 37° C. After removing the media, the cells are treated with test compounds diluted in stimulation buffer containing 1 mM IBMX, 0.25% BSA and 10 uM Forskolin. The assay is incubated for 30 minutes at 37° C. Cells are lysed and the cAMP concentration is measured using DiscoverX-XS cAMP kit, following the manufacturer's protocol. In this setting, agonists will decrease forskolin induced production of cAMP while inverse agonists will further increase forskolin induced production of cAMP. EC50 of agonists are calculated as follows. The maximal amount of cAMP produced by forskolin compared to the level of cAMP inhibited by 1 uM CP55940 is defined as 100%. […] Data is analyzed using a four-parameter logistic model. (Model 205 of XLfit 4.0).

T1 sequence (P34972 whole entry): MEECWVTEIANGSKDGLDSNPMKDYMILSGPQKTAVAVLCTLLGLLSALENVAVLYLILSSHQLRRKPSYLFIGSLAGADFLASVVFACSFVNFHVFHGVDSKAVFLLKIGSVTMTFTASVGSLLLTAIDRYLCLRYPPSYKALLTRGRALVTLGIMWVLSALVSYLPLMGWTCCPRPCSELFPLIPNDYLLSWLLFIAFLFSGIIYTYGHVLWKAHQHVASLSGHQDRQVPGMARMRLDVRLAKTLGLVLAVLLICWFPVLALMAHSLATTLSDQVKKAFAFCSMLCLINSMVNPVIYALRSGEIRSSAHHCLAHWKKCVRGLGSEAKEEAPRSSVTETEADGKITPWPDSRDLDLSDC

SMILES	EC50 [nM]
CC[C@@H](O)C(C)(C)c1cc(NC(=O)C(C)(C)S(=O)(=O)C2CCOCC2)on1	70
CC(O)C(C)(C)c1cc(NC(=O)C(C)(C)S(=O)(=O)C2CCOCC2)on1 (centres unmarked)	14
CCn1nc(NC(=O)C(C)(C)S(=O)(=O)C2CCOCC2)nc1-c1ccc(OC)cc1	77
COCCOCC(C)(C)c1cc(NC(=O)C(C)(C)S(=O)(=O)C[C@H]2CCOC2)on1	98
CC(C)(COCCO)c1cc(NC(=O)C(C)(C)S(=O)(=O)C2CCOCC2)no1	2.4
CC[C@H](O)C(C)(C)c1cc(NC(=O)C(C)(C)S(=O)(=O)C2CCOCC2)on1	47
COCCOCC1(c2cc(NC(=O)C(C)(C)S(=O)(=O)C3CCOCC3)on2)CCCCC1	59
COCCOCC(C)(C)c1cc(NC(=O)C(C)(C)S(=O)(=O)C2CCOCC2)no1	15
CO[C@@H](C)C(C)(C)c1cc(NC(=O)C(C)(C)S(=O)(=O)CC2CCOCC2)no1	30
CCC(O)C(C)(C)c1cc(NC(=O)C(C)(C)S(=O)(=O)C2CCOCC2)on1 (centres unmarked)	29
COCCOCC(C)(C)c1cc(NC(=O)C(C)(C)S(=O)(=O)CCC(F)(F)F)on1	27
CC(C)(COCCO)c1cc(NC(=O)C(C)(C)S(=O)(=O)C2CCN(S(C)(=O)=O)CC2)on1	10
COCCOCC(C)(C)c1cc(NC(=O)C(C)(C)S(=O)(=O)C2CCOCC2)on1	2.1
CC(C)(C(=O)Nc1cc(C2(COC3CCCCO3)CCCCC2)no1)S(=O)(=O)C1CCOCC1 (centres unmarked)	22
COCCOCC(C)(C)c1cc(NC(=O)C(C)(C)S(=O)(=O)C2CCN(S(C)(=O)=O)CC2)on1	11
CC(C)(C)C(=O)OCC(C)(C)c1cc(NC(=O)C(C)(C)S(=O)(=O)C2CCOCC2)on1	50
C[C@H](OC1CCCOC1)C(C)(C)c1cc(NC(=O)C(C)(C)S(=O)(=O)C2CCOCC2)on1 (some centres unmarked)	2.8
CC1(c2cc(NC(=O)C(C)(C)S(=O)(=O)C3CCOCC3)on2)CCCO1 (centres unmarked)	13

SMILES	EC50 [nM]
CC(C)CCS(=O)(=O)C(C)(C)C(=O)Nc1cc(C2CCOCC2)no1	97
CC(C)(OCCO)c1cc(NC(=O)C(C)(C)S(=O)(=O)C2CCOCC2)on1	28
C[C@H](O)C(C)(C)c1cc(NC(=O)C(C)(C)S(=O)(=O)CC[C@@H]2CCOC2)no1	15
CC(=O)OCC(C)(C)c1cc(NC(=O)C(C)(C)S(=O)(=O)C2CCOCC2)on1	4.2
CC(O)C(C)(C)c1cc(NC(=O)C(C)(C)S(=O)(=O)CCCC(F)(F)F)on1 (centres unmarked)	31
CC(C)(COC(=O)c1ccccc1)c1cc(NC(=O)C(C)(C)S(=O)(=O)C2CCOCC2)on1	11
CC(C)(COCCO)c1cc(NC(=O)C(C)(C)S(=O)(=O)CC2CCOCC2)on1	13
C[C@H](O)C(C)(C)c1cc(NC(=O)C(C)(C)S(=O)(=O)C2CCOCC2)no1	25
CCn1nc(NC(=O)C(C)(C)S(=O)(=O)C2CCOCC2)nc1-c1ccc(O)cc1	10
C[C@H](O)C(C)(C)c1cc(NC(=O)C(C)(C)S(=O)(=O)C2CCOCC2)on1	14
CCOCCOCC(C)(C)c1cc(NC(=O)C(C)(C)S(=O)(=O)C2CCOCC2)on1	1.5
CC(C)(C(=O)Nc1cc(C2(COC3CCCCO3)CCCC2)no1)S(=O)(=O)c1ccc(F)cc1 (centres unmarked)	5.3
C[C@@H](O)C(C)(C)c1cc(NC(=O)C(C)(C)S(=O)(=O)C2CCOCC2)on1	20
COCCOCC(C)(C)c1cc(NC(=O)C(C)(C)S(=O)(=O)CC2CCOCC2)no1	15
CO[C@@H](C)C(C)(C)c1cc(NC(=O)C(C)(C)S(=O)(=O)C2CCOCC2)no1	10.8
COCCOC(C)(C)c1cc(NC(=O)C(C)(C)S(=O)(=O)C2CCOCC2)on1	96
C[C@H](O)C(C)(C)c1cc(NC(=O)C(C)(C)S(=O)(=O)c2ccc(F)cc2)on1	42

Same assay, conditions: CHO cells expressing human CB2R; inhibition of forskolin-stimulated cAMP synthesis; read-out: CB2 EC50

SMILES	EC50 [nM]
CC(C)(C(=O)Nc1cc([C@@H]2CCCO2)no1)S(=O)(=O)C1CCOCC1	138
CC(C)(C(=O)Nc1cc(C2CCOCC2)no1)S(=O)(=O)CCCC(F)(F)F	368
CC[C@H](C)S(=O)(=O)C(C)(C)C(=O)Nc1cc(C(C)(C)[C@H](C)O)no1	250
COc1ccc(COCC(C)(C)c2cc(NC(=O)C(C)(C)S(=O)(=O)CC3CCOCC3)on2)cc1	167
CC(C)(C(=O)Nc1cc(C2CCOCC2)no1)S(=O)(=O)C1CCOCC1	348
C[C@H](O)C(C)(C)c1cc(NC(=O)C(C)(C)S(=O)(=O)C2CCN(S(C)(=O)=O)CC2)on1	107
CC(C)(O)C(C)(C)c1cc(NC(=O)C(C)(C)S(=O)(=O)C2CCOCC2)on1	116
CC(C)(C(=O)Nc1cc(C2CCCO2)no1)S(=O)(=O)C1CCOCC1 (centres unmarked)	101
C[C@H](O)C(C)(C)c1cc(NC(=O)C(C)(C)S(=O)(=O)CC2CCOCC2)no1	121
CC(C)C(O)C(C)(C)c1cc(NC(=O)C(C)(C)S(=O)(=O)C2CCOCC2)on1 (centres unmarked)	150
CC(C)(C(=O)Nc1cc(C2CCOC2)no1)S(=O)(=O)CCCC(F)(F)F (centres unmarked)	172

Target: T2, human CB1R (Homo sapiens, UniProt P21554)
T2 construct: host or cells: CHO cells
T2 sequence (P21554 whole entry): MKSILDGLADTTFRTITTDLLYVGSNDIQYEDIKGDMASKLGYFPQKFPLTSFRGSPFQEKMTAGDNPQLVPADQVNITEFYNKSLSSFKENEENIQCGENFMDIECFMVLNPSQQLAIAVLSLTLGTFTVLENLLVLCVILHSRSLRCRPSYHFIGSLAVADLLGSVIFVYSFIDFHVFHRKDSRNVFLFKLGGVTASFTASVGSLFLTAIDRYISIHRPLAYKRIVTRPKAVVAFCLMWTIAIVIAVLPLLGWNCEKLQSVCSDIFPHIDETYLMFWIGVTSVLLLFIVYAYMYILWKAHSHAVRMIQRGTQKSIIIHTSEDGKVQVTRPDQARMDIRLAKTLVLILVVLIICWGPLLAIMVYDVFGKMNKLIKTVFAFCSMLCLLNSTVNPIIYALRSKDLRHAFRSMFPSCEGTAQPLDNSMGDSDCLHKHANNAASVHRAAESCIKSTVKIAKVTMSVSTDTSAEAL
Experiment: CB1R mediated modulation of cAMP synthesis
Assay type: cell-based
Settings: not given
Protocol: C. CB1R Mediated Modulation of cAMP Synthesis:
Compounds of the invention are evaluated for their CB1 agonist or inverse agonistic activity in accordance with the following experimental method.
as §1, with “CB1R” for “CB2R”

SMILES	EC50 [nM]
CC[C@@H](O)C(C)(C)c1cc(NC(=O)C(C)(C)S(=O)(=O)C2CCOCC2)on1	> 50000
CC(O)C(C)(C)c1cc(NC(=O)C(C)(C)S(=O)(=O)C2CCOCC2)on1 (centres unmarked)	> 50000
CCn1nc(NC(=O)C(C)(C)S(=O)(=O)C2CCOCC2)nc1-c1ccc(OC)cc1	> 500000
COCCOCC(C)(C)c1cc(NC(=O)C(C)(C)S(=O)(=O)C[C@H]2CCOC2)on1	> 50000
CC(C)(COCCO)c1cc(NC(=O)C(C)(C)S(=O)(=O)C2CCOCC2)no1	> 50000
CC[C@H](O)C(C)(C)c1cc(NC(=O)C(C)(C)S(=O)(=O)C2CCOCC2)on1	> 50000
COCCOCC1(c2cc(NC(=O)C(C)(C)S(=O)(=O)C3CCOCC3)on2)CCCCC1	> 50000
COCCOCC(C)(C)c1cc(NC(=O)C(C)(C)S(=O)(=O)C2CCOCC2)no1	> 50000
CO[C@@H](C)C(C)(C)c1cc(NC(=O)C(C)(C)S(=O)(=O)CC2CCOCC2)no1	> 50000
CCC(O)C(C)(C)c1cc(NC(=O)C(C)(C)S(=O)(=O)C2CCOCC2)on1 (centres unmarked)	> 50000
COCCOCC(C)(C)c1cc(NC(=O)C(C)(C)S(=O)(=O)CCC(F)(F)F)on1	> 50000
CC(C)(COCCO)c1cc(NC(=O)C(C)(C)S(=O)(=O)C2CCN(S(C)(=O)=O)CC2)on1	> 50000
COCCOCC(C)(C)c1cc(NC(=O)C(C)(C)S(=O)(=O)C2CCOCC2)on1	> 50000
CC(C)(C(=O)Nc1cc(C2(COC3CCCCO3)CCCCC2)no1)S(=O)(=O)C1CCOCC1 (centres unmarked)	> 50000
COCCOCC(C)(C)c1cc(NC(=O)C(C)(C)S(=O)(=O)C2CCN(S(C)(=O)=O)CC2)on1	> 50000
CC(C)(C)C(=O)OCC(C)(C)c1cc(NC(=O)C(C)(C)S(=O)(=O)C2CCOCC2)on1	> 50000
C[C@H](OC1CCCOC1)C(C)(C)c1cc(NC(=O)C(C)(C)S(=O)(=O)C2CCOCC2)on1 (some centres unmarked)	> 50000
CC1(c2cc(NC(=O)C(C)(C)S(=O)(=O)C3CCOCC3)on2)CCCO1 (centres unmarked)	> 50000

SMILES	EC50 [nM]
CC(C)CCS(=O)(=O)C(C)(C)C(=O)Nc1cc(C2CCOCC2)no1	> 20000
CC(C)(OCCO)c1cc(NC(=O)C(C)(C)S(=O)(=O)C2CCOCC2)on1	> 50000
C[C@H](O)C(C)(C)c1cc(NC(=O)C(C)(C)S(=O)(=O)CC[C@@H]2CCOC2)no1	21000
CC(=O)OCC(C)(C)c1cc(NC(=O)C(C)(C)S(=O)(=O)C2CCOCC2)on1	> 50000
CC(O)C(C)(C)c1cc(NC(=O)C(C)(C)S(=O)(=O)CCCC(F)(F)F)on1 (centres unmarked)	> 20000
CC(C)(COC(=O)c1ccccc1)c1cc(NC(=O)C(C)(C)S(=O)(=O)C2CCOCC2)on1	> 50000
CC(C)(COCCO)c1cc(NC(=O)C(C)(C)S(=O)(=O)CC2CCOCC2)on1	> 50000
C[C@H](O)C(C)(C)c1cc(NC(=O)C(C)(C)S(=O)(=O)C2CCOCC2)no1	> 50000
CCn1nc(NC(=O)C(C)(C)S(=O)(=O)C2CCOCC2)nc1-c1ccc(O)cc1	> 20000
C[C@H](O)C(C)(C)c1cc(NC(=O)C(C)(C)S(=O)(=O)C2CCOCC2)on1	> 50000
CCOCCOCC(C)(C)c1cc(NC(=O)C(C)(C)S(=O)(=O)C2CCOCC2)on1	> 50000
CC(C)(C(=O)Nc1cc(C2(COC3CCCCO3)CCCC2)no1)S(=O)(=O)c1ccc(F)cc1 (centres unmarked)	> 50000
C[C@@H](O)C(C)(C)c1cc(NC(=O)C(C)(C)S(=O)(=O)C2CCOCC2)on1	> 50000
COCCOCC(C)(C)c1cc(NC(=O)C(C)(C)S(=O)(=O)CC2CCOCC2)no1	> 50000
CO[C@@H](C)C(C)(C)c1cc(NC(=O)C(C)(C)S(=O)(=O)C2CCOCC2)no1	> 50000
COCCOC(C)(C)c1cc(NC(=O)C(C)(C)S(=O)(=O)C2CCOCC2)on1	> 50000
C[C@H](O)C(C)(C)c1cc(NC(=O)C(C)(C)S(=O)(=O)c2ccc(F)cc2)on1	> 50000

Same assay, conditions: CHO cells expressing human CB1R; inhibition of forskolin-stimulated cAMP synthesis; read-out: CB1 EC50

SMILES	EC50 [nM]
CC(C)(C(=O)Nc1cc([C@@H]2CCCO2)no1)S(=O)(=O)C1CCOCC1	> 50000
CC(C)(C(=O)Nc1cc(C2CCOCC2)no1)S(=O)(=O)CCCC(F)(F)F	> 50000
CC[C@H](C)S(=O)(=O)C(C)(C)C(=O)Nc1cc(C(C)(C)[C@H](C)O)no1	> 50000
COc1ccc(COCC(C)(C)c2cc(NC(=O)C(C)(C)S(=O)(=O)CC3CCOCC3)on2)cc1	> 20000
CC(C)(C(=O)Nc1cc(C2CCOCC2)no1)S(=O)(=O)C1CCOCC1	> 50000
C[C@H](O)C(C)(C)c1cc(NC(=O)C(C)(C)S(=O)(=O)C2CCN(S(C)(=O)=O)CC2)on1	> 50000
CC(C)(O)C(C)(C)c1cc(NC(=O)C(C)(C)S(=O)(=O)C2CCOCC2)on1	> 50000
CC(C)(C(=O)Nc1cc(C2CCCO2)no1)S(=O)(=O)C1CCOCC1 (centres unmarked)	> 50000
C[C@H](O)C(C)(C)c1cc(NC(=O)C(C)(C)S(=O)(=O)CC2CCOCC2)no1	> 50000
CC(C)C(O)C(C)(C)c1cc(NC(=O)C(C)(C)S(=O)(=O)C2CCOCC2)on1 (centres unmarked)	> 50000
CC(C)(C(=O)Nc1cc(C2CCOC2)no1)S(=O)(=O)CCCC(F)(F)F (centres unmarked)	> 50000
